Laboratory results as given in patent US11459375B2, “Cyclic peptides for the treatment of Graves' disease” (advanceCOR GmbH, priority 2017, dated 2022).
Peptide text beside a SMILES is read from it.

Assays:
Ad-TSHR-immunized mice [1] = assay: anti-TSHR antibody titers in serum of treated Ad-TSHR-immunized mice (3rd generation ELISA, inhibition of M22 binding to TSHR); type: in vivo, BALB/c mice; conditions: 1 mg/kg IV at 4-weekly intervals, after start of therapy despite continuing immunisations
Procedure: The measurements were carried out in Ad-TSHR-immunized mice treated by either 4-weekly injections with vehicle (0.9% NaCl, “Graves' no therapy”, n=25 mice), or administrations of 1 mg/kg body weight of peptide of the invention 836 (12 mice), or of peptide 829 (13 mice), or of TSHR-Fc (18 mice), or of control peptide 835 (13 mice). In addition, age-matched immunologically naïve unimmunized mice (“healthy”, 19 animals) were investigated. Data are represented as mean±SEM. Significance over time was tested by analysis of variance (ANOVA) of groups at given time points, and controlled by ANOVA for repeated measurements within one group, followed by LSD post-hoc testing. *p<0.05, and **p<0.005, compared to the TSHR-immunized group treated with only NaCl (“Graves' no therapy”).
Animals were kept under standard housing conditions (23±2° C., 55±10% RH) in groups of ten animals in GR1800DD cages (Tecniplast®). […] All guidelines for care of animals were respected. Mice received 10^10 plaque-forming units (pfu) of adenovirus carrying the A-subunit of the TSHR gene. […]
Anti-TSHR autoantibody titers and potency of antibodies to stimulate TSHR-dependent cAMP levels in test cells were determined before start of immunisation (basal value), 56 days after first immunisation, 133 days after first immunisation, and 189 days after first immunisation, and at the end of experiment.

Ad-TSHR-immunized mice [2] = assay: qualitative histological investigation of the thyroid; type: in vivo, BALB/c mice; conditions: 9x AdTSHR-treated mice, 1 mg/kg IV 4-weekly
Procedure: After euthanasia, dissection of the thyroid glands was performed under a stereomicroscope, as described before (22). Briefly, cross cuts at the level above the larynx and below the seventh cartilage ring were made and the glands with the tracheae and oesophagi were removed from the necks. Tissue blocks were kept in 4% neutral para-formaldehyde (PFA), washed in PBS 3 times and embedded in optimum cutting temperature (OCT) formulation (Tissue-Tek® O.C.T.™ compound, VWR Chemicals, Leuven, Belgium). Consecutive 5 μm-thick cross sections were cut at a fixed distance of 500 μm using a Leica microtome CM 1850 Cryostat (temperature at −19° C.) and mounted on Thermo Polysine slides (Thermo Scientific, Cat J2800AMNZ). The collected sections represented a total distance of ˜5-6 mm, and covered the whole thyroid region of each animal. The tissue sections were then stained with hematoxylin-eosin (HE) and examined using bright field illumination on a Zeiss upright microscope. Thyroid volumes (mm^3) were calculated from the sum of the areas of each section over the whole cutting region. Myocardial volumes (mm^3) were calculated in a similar way as described for thyroid glands from the sum of the areas of each section over whole cutting region (5 to 6 slides, depending on respective size of the hearts). The method has been described before (22). […]

[3] = test system: monoclonal M22 antibody binding to TSHR; assay: direct binding/scavenging of anti-TSHR antibody M22 (modified 3rd generation titer assay); set-up: species or system human; conditions: 100 μg/mL test substance, M22 final concentration 10 ng/mL
Procedure: In FIG. 8 the effects of peptides on anti-TSHR antibody titers (A) and on cAMP stimulation in TSHR-expressing test cells (B) were studied ex vivo (anti-TSHR-antibody positive serum samples). Each measurement was carried out in 4 samples. Results are shown as % of untreated controls with standard errors of the means (SEM). Significance was tested by analysis of variance (ANOVA) between groups, followed by LSD post-hoc testing. **p<0.001, compared to controls
In order to investigate the direct binding of peptides to anti-TSHR antibodies, Roche's Cobas® assay (04388790) for ECLIA was used with minor modifications: 30 μl of the diluted monoclonal M22-Bio antibody was mixed with 30 μl diluted peptide or TSHR-Fc (final concentration of 100 μg/ml in PBS) and added to the TSHR-pre-coated microtiter plate. After an incubation step for 2 h at room temperature the protocol was continued according to the manufacturer's instructions.

| Molecule | time course of anti-TSHR antibody titers (Ad-TSHR-immunized mice [1]) | mean histological scores of the thyroid (Ad-TSHR-immunized mice [2]) | anti-TSHR antibody titers (M22 binding to its substrate) [3] |
| --- | --- | --- | --- |
| CC[C@H](C)[C@@H]1NC(=O)[C@H](C(C)C)NC(=O)[C@H]([C@@H](C)O)NC(=O)[C@H](CC(C)C)NC(=O)[C@H](Cc2ccc(O)cc2)NC(=O)[C@H](CCCCN)NC(=O)[C@H](CC(N)=O)NC(=O)[C@H](CCCCN)NC(=O)[C@H](CC(N)=O)NC(=O)[C@H](CC(C)C)NC(=O)[C@H](Cc2ccc(O)cc2)NC(=O)[C@H](C(C)C)NC(=O)[C@H](C)NC(=O)[C@H](CC(=O)O)NC(=O)[C@H](CC(C)C)NC(=O)[C@H](CCCCN)NC(=O)[C@H]([C@@H](C)O)NC(=O)CNC(=O)[C@H](CC(N)=O)NC(=O)[C@H](Cc2ccccc2)NC(=O)[C@H](C)NC(=O)[C@H](Cc2ccc(O)cc2)NC(=O)CNC(=O)[C@H](CC(=O)O)NC1=O [peptide 836] (cyclo(GYAFNGTKLDAVYLNKNKYLTVID)) | no trends for further anti-TSHR titer increases after start of therapy |  |  |
| TSHR-Fc: fusion protein: first 289 amino acids of human TSH receptor (A-subunit), GGR linker and Fc portion of human IgG2 | no trends for further anti-TSHR titer increases after start of therapy | markedly better compared to the vehicle-treated group | significantly reduced anti-TSHR antibody titers |
